The source of these data is US12661342B2, “Heteroaryl compounds and therapeutic uses thereof in conditions associated with the alteration of the activity of beta-glucocerebrosidase” (GT GAIN THERAPEUTICS SA, priority 2019, dated 2026).

The target in the assay is T1, β-glucocerebrosidase (Homo sapiens, UniProt P04062, L483P).
T1 construct: host or cells: human Gaucher disease patient fibroblasts GM08760A
T1 sequence (P04062 40-536 L483P): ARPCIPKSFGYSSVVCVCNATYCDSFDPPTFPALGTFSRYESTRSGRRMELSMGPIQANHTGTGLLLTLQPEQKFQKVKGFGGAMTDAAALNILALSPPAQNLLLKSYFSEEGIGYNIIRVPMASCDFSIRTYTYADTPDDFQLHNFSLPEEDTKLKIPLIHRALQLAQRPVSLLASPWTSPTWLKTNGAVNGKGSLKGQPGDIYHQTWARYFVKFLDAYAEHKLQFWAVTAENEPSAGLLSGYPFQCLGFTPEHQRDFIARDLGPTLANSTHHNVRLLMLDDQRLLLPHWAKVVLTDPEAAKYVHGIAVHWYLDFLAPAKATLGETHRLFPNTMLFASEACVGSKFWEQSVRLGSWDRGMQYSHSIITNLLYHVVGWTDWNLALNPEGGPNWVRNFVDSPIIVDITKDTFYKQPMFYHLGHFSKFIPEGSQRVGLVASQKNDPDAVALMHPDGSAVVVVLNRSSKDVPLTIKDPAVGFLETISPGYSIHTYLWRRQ
Briefly: Enhancement of β-glucocerebrosidase activity measured in Gaucher disease fibroblasts (4-MU-β-D-glucopyranoside substrate, intact cells). It counts as cell-based. The note with it: GBA fibroblasts bearing L444P (GM08760A, homozygous p.L444P); compound at concentrations between 6 and 50 μM; 4 days incubation. On the set-up: key: Increase in comparison with non-treated of >2.0 fold is shown as A; Increase in comparison with non-treated of >1.7-2.0 fold is shown as B; Increase in comparison with non-treated of 1.2-1.7 fold is shown as C; D means that no increase compared with non-treated cells was detected in this method. The procedure:
Human fibroblasts from a patient with Gaucher disease homozygous for p.L444P mutation (GM08760A) were purchased from Coriell Institute for Medical Research (Camden, NJ, USA).
Fibroblasts were seeded at 5×10^3 cells per well in 96-well cell culture plates (Corning, NY, USA) in Dulbecco's Modified Eagle's Media (DMEM) supplemented with 10% of fetal bovine serum (FBS), 1% penicillin/streptomycin (P/S) (Thermo Fisher Scientific, Waltham, MA, USA) and grown at 37° C., 5% CO2 overnight for cell attachment. Subsequently, cells were incubated in the absence or presence of the compounds at the desired concentration for 4 days. After incubation, cells were washed twice with phosphate-buffered saline (PBS) and enzyme activity assay was performed.
β-glucocerebrosidase activity in intact cultured cells was measured by using 4-methylumbelliferyl-β-D-glucopyranoside substrate (Apollo Scientific, UK). Briefly, cells were incubated with 4-MU-β-D-glucopyranoside in 0.1 M acetate buffer pH=4 at 37° C. for 1 hour. The reaction was stopped by adding 200 μL at 100 mM glycine-NaOH pH=10.7. The liberated 4-MU was measured on a GloMax Discover plate reader (Promega, Madison, WI, USA) with and excitation at 340 nm and emission at 460 nm. Enzyme activities were expressed in treated cells as X-fold increase in comparison with non-treated cells (X=1 represents no enhancement).
The capacity of the compounds of the disclosure to produce an increase in enzyme activity in GBA fibroblasts bearing L444P at concentrations between 6 and 50 μM is denoted as follows: • Increase in comparison with non-treated of >2.0 fold is shown as A • Increase in comparison with non-treated of >1.7-2.0 fold is shown as B • Increase in comparison with non-treated of 1.2-1.7 fold is shown as C • D means that no increase compared with non-treated cells was detected in this method • ND means “not determined”
For the compound `Nc1nc2c(c(Nc3ccccc3O)n1)CCN(Cc1ccccc1)C2` [Example 25, 2-((2-Amino-7-benzyl-5,6,7,8-tetrahydropyrido[3,4-d]pyrimidin-4-yl)amino)phenol], the “Range: increase in enzyme activity in comparison with non-treated cells (Enzyme activity assay for exemplified compounds)” value is reported as “B (Increase in comparison with non-treated of >1.7-2.0 fold is shown as B)”. Same read-out and setting: under `COc1ccc(Nc2nc(N)nc3c2CCN(Cc2ccccc2)C3)cc1` [Example 26, 7-Benzyl-N4-(4-methoxyphenyl)-5,6,7,8-tetrahydropyrido[3,4-d]pyrimidine-2,4-diamine] stands “C (Increase in comparison with non-treated of 1.2-1.7 fold is shown as C)”.

With `COc1cccc(Nc2nc(N)c3c(n2)CN(Cc2ccccc2)CC3)c1` [Example 27, 7-Benzyl-N^2-(3-methoxyphenyl)-5,6,7,8-tetrahydropyrido[3,4-d]pyrimidine-2,4-diamine], the “Range: increase in enzyme activity in comparison with non-treated cells (Enzyme activity assay for exemplified compounds)” value is on record as “A (Increase in comparison with non-treated of >2.0 fold is shown as A)”. As for `COc1ccccc1Nc1nc(N)c2c(n1)CN(Cc1ccccc1)CC2` [Example 28, 7-Benzyl-N2-(2-methoxyphenyl)-5,6,7,8-tetrahydropyrido[3,4-d]pyrimidine-2,4-diamine], the “Range: increase in enzyme activity in comparison with non-treated cells (Enzyme activity assay for exemplified compounds)” value is given as “C (Increase in comparison with non-treated of 1.2-1.7 fold is shown as C)”.

`Nc1nc(Nc2ccccc2O)nc2c1CCN(Cc1ccccc1)C2` [Example 29, 2-((4-Amino-7-benzyl-5,6,7,8-tetrahydropyrido[3,4-d]pyrimidin-2-yl)amino)phenol]: the “Range: increase in enzyme activity in comparison with non-treated cells (Enzyme activity assay for exemplified compounds)” value is “B (Increase in comparison with non-treated of >1.7-2.0 fold is shown as B)”.

`COc1ccc(Nc2nc(N)c3c(n2)CN(Cc2ccccc2)CC3)cc1` [Example 30, 7-Benzyl-N2-(4-methoxyphenyl)-5,6,7,8-tetrahydropyrido[3,4-d]pyrimidine-2,4-diamine]: the “Range: increase in enzyme activity in comparison with non-treated cells (Enzyme activity assay for exemplified compounds)” value is recorded as “C (Increase in comparison with non-treated of 1.2-1.7 fold is shown as C)”.

As to `COc1cccc(Nc2nc(N)c3c(n2)CCN(Cc2ccccc2)C3)c1.Cl` [Example 31, 6-Benzyl-N2-(3-methoxyphenyl)-5,6,7,8-tetrahydropyrido[4,3-d]pyrimidine-2,4-diamine hydrochloride], the “Range: increase in enzyme activity in comparison with non-treated cells (Enzyme activity assay for exemplified compounds)” value was “B (Increase in comparison with non-treated of >1.7-2.0 fold is shown as B)”.

With `Nc1nc2c(c(Nc3ccccc3O)n1)CCN(c1ccccc1)C2` [Example 32, 2-((2-Amino-7-phenyl-5,6,7,8-tetrahydropyrido[3,4-d]pyrimidin-4-yl)amino)phenol], the “Range: increase in enzyme activity in comparison with non-treated cells (Enzyme activity assay for exemplified compounds)” value is on record as “B (Increase in comparison with non-treated of >1.7-2.0 fold is shown as B)”. On to `CN(C(=O)c1cc(N)nc(N[C@H]2CCCC[C@@H]2O)n1)c1ccccc1` [Example 33, 6-Amino-2-(((1S,2S)-2-hydroxycyclohexyl)amino)-N-methyl-N-phenylpyrimidine-4-carboxamide], for which the “Range: increase in enzyme activity in comparison with non-treated cells (Enzyme activity assay for compounds of Examples 33-141)” value was “D”.

Take `COc1ccccc1Nc1cc(C(=O)N2CCN(c3ccccc3)CC2)nc(N)n1` [Example 34, (2-Amino-6-((2-methoxyphenyl)amino)pyrimidin-4-yl)(4-phenylpiperazin-1-yl)methanone]: the “Range: increase in enzyme activity in comparison with non-treated cells (Enzyme activity assay for compounds of Examples 33-141)” value is “D”. Still for that read-out and setting: under `Nc1cc(C(=O)N2CCc3ccccc3C2)nc(Nc2ccccc2O)n1` [Example 35, (6-Amino-2-((2-hydroxyphenyl)amino)pyrimidin-4-yl)(3,4-dihydroisoquinolin-2(1H)-yl)methanone] stands “C (Increase in comparison with non-treated of 1.2-1.7 fold is shown as C)”.
